Reference: patent US6203976A, “Methods of preparing compositions comprising chemicals capable of transcriptional modulation” (OSI Pharmaceuticals, Inc., priority 1994, dated 2001)

Columns and labels:
[1] = test system: human growth hormone (532) promoter; test: High-throughput luciferase reporter assay, human Growth Hormone promoter (Screen III); type: cell-based; conditions: 532 cells, 6 hours; for FOLD INDUCTION RELATIVE TO SOLVENT CONTROL, hGH: Screen III activators; for FOLD INHIBITION RELATIVE TO SOLVENT CONTROL, hGH: Screen III inhibitors
MMTV (M10) promoter = test: High-throughput luciferase reporter assay, MMTV promoter (Screen III); type: cell-based, mouse; conditions: M10 cells, 6 hours; for FOLD INDUCTION RELATIVE TO SOLVENT CONTROL, MMTV: Screen III activators; for FOLD INHIBITION RELATIVE TO SOLVENT CONTROL, MMTV: Screen III inhibitors
Method: pMluci and pSV2Neo, an antibiotic resistance plasmid (112), were co-transfected into NIH/3T3 mouse fibroblast cells using the calcium phosphate precipitation method (103) with a commercially available kit (Pharmacia, Piscataway N.J.). Two days later, cells were transferred to media containing 0.4 mg/ml G418 and were grown for an additional 10-14 days. G418-resistant clones were isolated by standard methods. Once sufficient cell numbers were obtained, clones were analyzed based on several criteria: constitutive luciferase production, induction of luciferase expression by dexamethasone (1 μm, Sigma, St. Louis, Mo.), satisfactory attachment to microtiter plates used in the high-throughput screen and acceptable standard deviation in multiple luciferase expression assays (see below for assay protocol). This analysis was carried out using the luciferase assay conditions described above. Of the clones which satisfied the above criteria for the high throuphput screen, one clone, M10, was selected for use.

[2] = test system: human G-CSF (G21) promoter; test: High-throughput luciferase reporter assay, G-CSF promoter (Screen III); conditions: G21 cells, 6 hours; for FOLD INDUCTION RELATIVE TO SOLVENT CONTROL, GCSF: Screen III activators; for FOLD INHIBITION RELATIVE TO SOLVENT CONTROL, GCSF: Screen III inhibitors

Row | SMILES | FOLD INDUCTION RELATIVE TO SOLVENT CONTROL, hGH [1] | FOLD INDUCTION RELATIVE TO SOLVENT CONTROL, MMTV (MMTV (M10) promoter) | FOLD INDUCTION RELATIVE TO SOLVENT CONTROL, GCSF [2] | FOLD INHIBITION RELATIVE TO SOLVENT CONTROL, hGH [1] | FOLD INHIBITION RELATIVE TO SOLVENT CONTROL, MMTV (MMTV (M10) promoter) | FOLD INHIBITION RELATIVE TO SOLVENT CONTROL, GCSF [2]
1 | Nc1ncnc2c1nc(Br)n2[C@@H]1O[C@H](CO)[C@@H](O)[C@H]1O [compound 1583] | 0.12 fold | 0.88 fold | 5.82 fold |  |  | 
2 | Cc1ccc(P(CCP(c2ccc(C)cc2)c2ccc(C)cc2)c2ccc(C)cc2)cc1 [compound 1591] |  |  |  | 5.55 fold | 0.96 fold | 0.56 fold
3 | CC1(C)[C@@H](C(=O)OCC(F)(F)C(F)(F)C(F)(F)C(F)(F)C(F)(F)C(F)F)CC[C@@]1(C)C(=O)OCC(F)(F)C(F)(F)C(F)(F)C(F)(F)C(F)(F)C(F)F [compound 1592] | 0.74 fold | 1.34 fold | 3.20 fold |  |  | 
4 | O=C(Nc1cccc(C2=NCCN2)c1)Nc1cccc(C2=NCCN2)c1 [compound 1598] | 5.32 fold | 1.27 fold | 0.72 fold |  |  | 
5 | O=S(=O)(O)c1ccc(-c2nnc(-c3ccnc(-c4nnc(-c5ccc(S(=O)(=O)O)cc5)c(-c5ccc(S(=O)(=O)O)cc5)n4)c3)nc2-c2ccc(S(=O)(=O)O)cc2)cc1 [compound 1604] |  |  |  | 5.00 fold | 0.97 fold | 0.77 fold
6 | C(=Cc1ccccn1)c1ccccn1 [compound 1640] |  |  |  | 5.00 fold | 0.59 fold | 0.79 fold
7 | c1ccc(-c2nccnc2-c2ccccn2)nc1 [compound 1641] |  |  |  | 5.55 fold | 0.60 fold | 0.83 fold
8 | O=S(=O)(O)c1ccc(-c2ccnc(-c3nnc(-c4ccc(S(=O)(=O)O)cc4)c(-c4ccc(S(=O)(=O)O)cc4)n3)c2)cc1 [compound 1648] |  |  |  | 7.69 fold | 1.00 fold | 0.86 fold
9 | COC(=O)CP(=O)(OCC(F)(F)F)OCC(F)(F)F [compound 1651] |  |  |  | 3.57 fold | 0.70 fold | 0.69 fold
10 | O=C(O)c1cc(C(F)(F)F)ccc1C(F)(F)F [compound 1655] |  |  |  | 4.76 fold | 0.81 fold | 0.54 fold
11 | OCC1CC2C3CC(CO)C(C3)C2C1 (stereo not drawn) [compound 1678] | 7.08 fold | 0.89 fold | 0.36 fold |  |  | 
12 | N#Cc1cccc(Br)c1 [compound 1703] |  |  |  | 10.00 fold | 0.90 fold | 0.76 fold
13 | N#Cc1ccc(Br)cc1 [compound 1704] |  |  |  | 4.16 fold | 0.94 fold | 0.77 fold
14 | O=C(c1ccccc1)c1ccc(Br)cc1 [compound 1705] |  |  |  | 14.28 fold | 0.62 fold | 0.54 fold
15 | Cc1cc(=O)oc2c(CN(CC(=O)O)CC(=O)O)c(O)ccc12 [compound 1712] |  |  |  | 8.33 fold | 0.94 fold | 0.74 fold
16 | CCOC(=O)c1c[nH]c(=S)[nH]c1=O [compound 1740] | 17.77 fold | 0.87 fold | 0.74 fold |  |  | 
17 | N[C@@H](CCCCNC(=O)OCc1ccccc1)C(=O)O [compound 1747] | 6.16 fold | 0.86 fold | 0.78 fold |  |  | 

Row | SMILES | FOLD INDUCTION RELATIVE TO SOLVENT CONTROL, hGH [1] | FOLD INDUCTION RELATIVE TO SOLVENT CONTROL, MMTV (MMTV (M10) promoter) | FOLD INDUCTION RELATIVE TO SOLVENT CONTROL, GCSF [2] | FOLD INHIBITION RELATIVE TO SOLVENT CONTROL, hGH [1] | FOLD INHIBITION RELATIVE TO SOLVENT CONTROL, MMTV (MMTV (M10) promoter) | FOLD INHIBITION RELATIVE TO SOLVENT CONTROL, GCSF [2]
18 | Cc1cc(=O)oc2cc(OCC(=O)O)ccc12 [compound 1764] |  |  |  | 7.14 fold | 0.82 fold | 0.55 fold
19 | Cc1c(C(=O)O)c(O)cc2c1C(=O)c1c(O)c([C@@H]3O[C@H](CO)[C@@H](O)[C@H](O)[C@H]3O)c(O)c(O)c1C2=O [compound 1770] |  |  |  | 10.00 fold | 0.57 fold | 0.54 fold
20 | NCCC(=O)N[C@@H](Cc1cnc[nH]1)C(=O)O [compound 1771] |  |  |  | 10.00 fold | 0.72 fold | 0.71 fold
21 | Cc1cc(C2(c3cc(C)c(O)c(CN(CC(=O)O)CC(=O)O)c3)OC(=O)c3ccccc32)cc(CN(CC(=O)O)CC(=O)O)c1O [compound 1773] |  |  |  | 10.00 fold | 0.67 fold | 0.62 fold
22 | N=c1cc2oc3cc(N)ccc3nc-2c2ccccc12 [compound 1776] | 0.15 fold | 1.36 fold | 3.50 fold |  |  | 
23 | CN(C)C(=S)SCC#N [compound 1793] | 0.52 fold | 1.21 fold | 9.50 fold |  |  | 
24 | O=C(O)C1CCC1 [compound 1804] | 9.41 fold | 0.49 fold | 1.05 fold |  |  | 
25 | O=c1[nH]c(=O)c2nc3ccccc3nc2[nH]1 [compound 1890] |  |  |  | 5.26 fold | 0.58 fold | 0.80 fold
26 | Nc1c2ccccc2nc2ccccc12 [compound 1904] | 0.54 fold | 0.82 fold | 4.12 fold |  |  | 
27 | Brc1cccc(-c2ccccc2)c1 [compound 1994] | 0.34 fold | 0.63 fold | 3.29 fold |  |  | 
28 | CC(C)(C)c1ccc(Br)cc1 [compound 2001] | 0.74 fold | 1.12 fold | 3.11 fold |  |  | 
29 | Nc1c(Br)cc([N+](=O)[O-])cc1[N+](=O)[O-] [compound 2010] |  |  |  | 0.63 fold | 3.57 fold | 0.80 fold
30 | COc1c(F)cc(Br)cc1[N+](=O)[O-] [compound 2030] | 0.67 fold | 0.87 fold | 5.53 fold |  |  | 
31 | O=C(O)c1ccc(Br)o1 [compound 2035] |  |  |  | 7.14 fold | 0.89 fold | 0.57 fold
32 | COc1cc2oc(=O)cc(CBr)c2cc1OC [compound 2064] | 1.10 fold | 2.53 fold | 0.82 fold |  |  | 
33 | CC(CCl)CBr (stereo not drawn) [compound 2096] | 0.61 fold | 0.89 fold | 3.27 fold |  |  | 
34 | ClCc1ccc(Cl)cc1 [compound 2129] | 0.75 fold | 0.95 fold | 3.23 fold |  |  | 
